Measured values taken from PMC6804162, “Inhibitory Effects of Novel 7-Substituted 6-iodo-3-O-Flavonol Glycosides against Cholinesterases and β-secretase Activities, and Evaluation for Potential Antioxidant Properties” (Molecules, 2019).
Where “and” joins values, the source holds several entries; their conditions need not be identical. Identical values can stand only once.

How the values were obtained:
[1] = DPPH radical scavenging activity assay; conditions: DPPH 0.20 mM in methanol, 45 min in the dark, mean ± SD
Procedure: The test compounds at various concentration ranging from (0 to 40 µM) in DMSO were mixed with a solution of DPPH (0.20 mM) in methanol. […] All tests and analyses were run in triplicate and averaged. The inhibition was calculated in terms of percentage using the formula below:DPPH radical scavenged (%) = [(AbC ‒ AbS)/AbC] × 100(2) where AbC is absorbance of control and AbS the absorbance of the test sample.

[2] = target: acetylcholinesterase (AChE) (Homo sapiens, UniProt P22303); assay: biochemical; assay type: biochemical; conditions: for SI BChE/AChE: AChE selectivity index = IC50 (BChE)/IC50 (AChE); for IC50: mean ± SD, three independent experiments
Chain of acetylcholinesterase (AChE) (P22303 32-614): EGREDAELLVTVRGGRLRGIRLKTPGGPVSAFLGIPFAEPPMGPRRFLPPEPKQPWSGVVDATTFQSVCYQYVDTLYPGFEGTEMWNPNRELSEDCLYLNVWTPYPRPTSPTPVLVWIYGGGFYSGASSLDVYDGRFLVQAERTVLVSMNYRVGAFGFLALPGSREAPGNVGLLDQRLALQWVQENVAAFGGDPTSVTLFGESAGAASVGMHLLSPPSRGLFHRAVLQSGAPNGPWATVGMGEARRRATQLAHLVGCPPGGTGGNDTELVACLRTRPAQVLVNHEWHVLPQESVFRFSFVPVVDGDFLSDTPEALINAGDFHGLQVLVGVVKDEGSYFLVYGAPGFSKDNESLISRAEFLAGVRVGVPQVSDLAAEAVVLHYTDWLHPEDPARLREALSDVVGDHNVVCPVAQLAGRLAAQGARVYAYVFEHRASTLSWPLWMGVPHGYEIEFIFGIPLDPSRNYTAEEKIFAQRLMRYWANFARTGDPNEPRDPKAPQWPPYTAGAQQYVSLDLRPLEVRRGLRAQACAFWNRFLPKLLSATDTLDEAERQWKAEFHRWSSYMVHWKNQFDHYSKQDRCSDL
Procedure: (§1) The IC50 and standard deviation values were determined graphically using Graph Pad Prism.

[3] = target: butyrylcholinesterase (BChE) (Homo sapiens, UniProt P06276); assay: biochemical; conditions: for SI AChE/BChE: BChE selectivity index = IC50 (AChE)/IC50 (BChE); for IC50: mean ± SD, three independent experiments
Chain of butyrylcholinesterase (BChE) (P06276 29-602): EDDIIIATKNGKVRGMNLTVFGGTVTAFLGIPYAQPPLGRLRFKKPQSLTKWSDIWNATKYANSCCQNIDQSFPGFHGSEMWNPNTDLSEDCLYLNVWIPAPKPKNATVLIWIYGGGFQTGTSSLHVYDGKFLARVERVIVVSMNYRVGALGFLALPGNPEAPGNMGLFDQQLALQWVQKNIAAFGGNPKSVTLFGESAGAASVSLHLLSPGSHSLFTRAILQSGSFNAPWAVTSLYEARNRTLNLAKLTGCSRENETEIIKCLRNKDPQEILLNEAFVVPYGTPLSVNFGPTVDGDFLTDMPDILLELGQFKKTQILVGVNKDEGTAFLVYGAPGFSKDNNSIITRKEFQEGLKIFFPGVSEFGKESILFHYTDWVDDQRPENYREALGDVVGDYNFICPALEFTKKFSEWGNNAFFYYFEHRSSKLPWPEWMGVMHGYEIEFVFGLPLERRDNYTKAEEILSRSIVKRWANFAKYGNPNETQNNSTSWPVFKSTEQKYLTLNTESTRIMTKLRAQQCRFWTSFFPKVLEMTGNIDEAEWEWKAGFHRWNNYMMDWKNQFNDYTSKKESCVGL
Procedure: as §1

β-secretase (BACE-1) [4] = target: T1, β-secretase (BACE-1) (Homo sapiens, UniProt P56817); assay: In vitro β-secretase inhibitory FRET assay; assay type: biochemical; conditions: 60 min incubation, read-out: IC50 (µM) against β-secretase activity
T1 construct: purchased Pan Vera; host or cells: baculovirus expression system
T1 sequence (P56817 46-501): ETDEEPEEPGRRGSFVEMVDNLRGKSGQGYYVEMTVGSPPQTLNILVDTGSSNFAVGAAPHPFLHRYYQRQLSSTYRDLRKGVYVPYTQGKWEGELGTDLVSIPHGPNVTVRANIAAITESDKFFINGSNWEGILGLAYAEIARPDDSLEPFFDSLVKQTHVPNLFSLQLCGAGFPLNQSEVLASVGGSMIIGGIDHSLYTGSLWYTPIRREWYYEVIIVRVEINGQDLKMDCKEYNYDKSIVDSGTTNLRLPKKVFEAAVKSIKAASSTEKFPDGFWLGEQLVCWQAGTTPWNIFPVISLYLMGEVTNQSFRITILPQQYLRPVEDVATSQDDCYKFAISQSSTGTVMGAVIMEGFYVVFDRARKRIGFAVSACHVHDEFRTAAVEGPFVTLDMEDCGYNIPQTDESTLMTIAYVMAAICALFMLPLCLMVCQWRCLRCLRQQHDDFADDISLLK
Procedure: The inhibition ratio was calculated using the following equation:Inhibition (%) = [1 − (S − S0)/(C − C0)] × 100(1) where C is the fluorescence of control (enzyme, assay buffer, and substrate) after 60 min of incubation, C0 is the fluorescence of control at time 0, S is the fluorescence of tested samples (enzyme, sample solution, and substrate) after 60 min of incubation, and S0 the fluorescence of the tested samples at time 0.

β-secretase (BACE-1) [5] = target: T1, β-secretase (BACE-1); assay: Kinetic study against β-secretase (Lineweaver–Burk and Dixon plots); assay type: biochemical; conditions: for Mode of inhibition of β-secretase: Lineweaver–Burk plot; for Ki: from Dixon plots, read-out: Ki for inhibition of β-secretase
Procedure: (§2) The Lineweaver–Burk plots were drawn to determine the type of inhibition these compounds display against AChE and BChE (refer to Figure S2. In the Supplementary Material for the corresponding graphs).
(§3) Kinetic evaluation of 2l and 2p against ChEs or β-secretase were conducted following similar procedures previously employed for the corresponding flavonol precursors.

BChE = BChE (Homo sapiens, UniProt P06276); assay: Kinetic study against BChE (Lineweaver–Burk and Dixon plots); assay type: biochemical; conditions: for Mode of inhibition of BChE: Lineweaver–Burk plot; for Ki: from Dixon plots
Chain of BChE (P06276 29-602): as the sequence (P06276 29-602) above
Procedure: as §2, §3

AChE = AChE (Homo sapiens, UniProt P22303); assay: Kinetic study against AChE (Lineweaver–Burk and Dixon plots); assay type: biochemical; conditions: for Mode of inhibition of AChE: Lineweaver–Burk plot; for Ki: from Dixon plots, read-out: Inhibition constant (Ki) against AChE
Chain of AChE (P22303 32-614): as the sequence (P22303 32-614) above
Procedure: as §2, §3

Row | SMILES | IC50 [1] [µM] | SI BChE/AChE [2] | IC50 [2] | SI AChE/BChE [3] | IC50 [3] [µM] | IC50 (β-secretase (BACE-1) [4]) [µM] | Mode of inhibition of β-secretase (β-secretase (BACE-1) [5]) | Ki (β-secretase (BACE-1) [5]) [µM] | Mode of inhibition of BChE (BChE) | Ki (BChE) [µM] | Mode of inhibition of AChE (AChE) | Ki (AChE) [µM]
1 | O=C1O[C@H]([C@@H](O)CO)C(O)=C1O [Ascorbic acid, ascorbic acid, reference compound] | 5.5 ± 0.02 | – | – | – | – | – | – | – | – | – | – | –
2 | CC(=O)OC[C@H]1O[C@@H](Oc2c(-c3ccccc3)oc3cc(F)c(I)cc3c2=O)[C@H](OC(C)=O)[C@@H](OC(C)=O)[C@@H]1OC(C)=O [Compound 2a, 7-Fluoro-6-iodo-2-phenyl-4H-chromen-4-one-3-O-2,3,4,6-O-tetraacetyl-β-d-glucopyranoside] | – | 1.40 | 18.72 ± 0.03 µM | 0.71 | 26.17 ± 0.01 | – | – | – | – | – | – | –
3 | CC(=O)OC[C@H]1O[C@@H](Oc2c(-c3ccc(F)cc3)oc3cc(F)c(I)cc3c2=O)[C@H](OC(C)=O)[C@@H](OC(C)=O)[C@@H]1OC(C)=O [Compound 2b, 7-Fluoro-(4-fluorophenyl)-6-iodo-4H-chromen-4-one-3-O-2,3,4,6-O-tetraacetyl-β-d-glucopyranoside] | – | 0.78 | 28.2 ± 0.02 µM | 1.3 | 21.9 ± 0.04 | – | – | – | – | – | – | –
4 | CC(=O)OC[C@H]1O[C@@H](Oc2c(-c3ccc(Cl)cc3)oc3cc(F)c(I)cc3c2=O)[C@H](OC(C)=O)[C@@H](OC(C)=O)[C@@H]1OC(C)=O [Compound 2c, 7-Fluoro-2-(4-Chlorophenyl)-6-iodo-4H-chromen-4-one-3-O-2,3,4,6-O-tetraacetyl-β-d-glucopyranoside] | – | 1.25 | 24.74 ± 0.03 µM | 0.80 | 30.84 ± 0.04 | – | – | – | – | – | – | –
5 | COc1ccc(-c2oc3cc(F)c(I)cc3c(=O)c2O[C@@H]2O[C@H](COC(C)=O)[C@@H](OC(C)=O)[C@H](OC(C)=O)[C@H]2OC(C)=O)cc1 [Compound 2d, 7-Fluoro-6-iodo-2-(4-methoxyphenyl)-4H-chromen-4-one-3-O-2,3,4,6-O-tetraacetyl-β-d-glucopyranoside] | – | 0.32 | 60.4 ± 0.05 µM | 3.13 | 19.25 ± 0.11 | – | – | – | – | – | – | –
6 | CC(=O)OCC1OC(Oc2c(-c3ccccc3)oc3cc(Cl)c(I)cc3c2=O)C(OC(C)=O)C(OC(C)=O)C1OC(C)=O (stereo not drawn) [Compound 2e, 7-Chloro-6-iodo-2-phenyl-4H-chromen-4-one-3-O-2,3,4,6-O-tetraacetyl-β-d-glucopyranoside] | – | 0.26 | 34.44 ± 0.03 µM | 3.85 | 9.03 ± 0.12 | – | – | – | – | – | – | –
7 | CC(=O)OC[C@H]1O[C@@H](Oc2c(-c3ccc(F)cc3)oc3cc(Cl)c(I)cc3c2=O)[C@H](OC(C)=O)[C@@H](OC(C)=O)[C@@H]1OC(C)=O [Compound 2f, 7-Chloro-2-(4-fluorophenyl)-6-iodo-4H-chromen-4-one-3-O-2,3,4,6-O-tetraacetyl-β-d-glucopyranoside] | – | 0.44 | 70.66 ± 0.01 µM | 2.27 | 31.09 ± 0.04 | – | – | – | – | – | – | –
8 | CC(=O)OCC1OC(Oc2c(-c3ccc(Cl)cc3)oc3cc(Cl)c(I)cc3c2=O)C(OC(C)=O)C(OC(C)=O)C1OC(C)=O (stereo not drawn) [Compound 2g, 7-Chloro-2-(4-chlorophenyl)-6-iodo-4H-chromen-4-one-3-O-2,3,4,6-O-tetraacetyl-β-d-glucopyranoside] | 13.1 ± 0.01 | 0.23 | 31.44 ± 0.13 µM | 4.35 | 7.15 ± 0.01 | – | – | – | – | – | – | –
9 | COc1ccc(-c2oc3cc(Cl)c(I)cc3c(=O)c2O[C@@H]2O[C@H](COC(C)=O)[C@@H](OC(C)=O)[C@H](OC(C)=O)[C@H]2OC(C)=O)cc1 [Compound 2h, 7-Chloro-6-iodo-2-(4-methoxyphenyl)-4H-chromen-4-one-3-O-2,3,4,6-O-tetraacetyl-β-d-glucopyranoside] | – | 0.39 | 25.92 ± 0.02 µM | 2.56 | 10.1 ± 0.06 | – | – | – | – | – | – | –
10 | CC(=O)OC[C@H]1O[C@@H](Oc2c(-c3ccccc3)oc3cc(Br)c(I)cc3c2=O)[C@H](OC(C)=O)[C@@H](OC(C)=O)[C@@H]1OC(C)=O [Compound 2i, 7-Bromo-6-iodo-2-phenyl-4H-chromen-4-one-3-O-2,3,4,6-O-tetraacetyl-β-d-glucopyranoside] | – | 0.14 | 70.56 ± 0.03 µM | 7.14 | 9.79 ± 0.04 | – | – | – | – | – | – | –
11 | CC(=O)OC[C@H]1O[C@@H](Oc2c(-c3ccc(F)cc3)oc3cc(Br)c(I)cc3c2=O)[C@H](OC(C)=O)[C@@H](OC(C)=O)[C@@H]1OC(C)=O [Compound 2j, 7-Bromo-2-(4-fluorophenyl)-6-iodo-4H-chromen-4-one-3-O-2,3,4,6-O-tetraacetyl-β-d-glucopyranoside] | – | 1.31 | 31.2 ± 0.05 µM | 0.76 | 40.93 ± 0.04 | – | – | – | – | – | – | –
12 | CC(=O)OCC1OC(Oc2c(-c3ccc(Cl)cc3)oc3cc(Br)c(I)cc3c2=O)C(OC(C)=O)C(OC(C)=O)C1OC(C)=O (stereo not drawn) [Compound 2k, 7-Bromo-2-(4-chlorophenyl)-6-iodo-4H-chromen-4-one-3-O-2,3,4,6-O-tetraacetyl-β-d-glucopyranoside] | 11.4 ± 0.02 | 5.78 | 5.18 ± 0.01 µM | 0.17 | 29.95 ± 0.02 | – | – | – | – | – | – | –
13 | COc1ccc(-c2oc3cc(Br)c(I)cc3c(=O)c2OC2OC(COC(C)=O)C(OC(C)=O)C(OC(C)=O)C2OC(C)=O)cc1 (stereo not drawn) [Compound 2l, 7-Bromo-6-iodo-2-(4-methoxyphenyl)-4H-chromen-4-one-3-O-2,3,4,6-O-tetraacetyl-β-d-glucopyranoside] | 21.6 ± 0.03 | 1.43 | 5.05 ± 0.02 µM | 0.70 | 7.24 ± 0.03 | 18.3 ± 0.01 | non-competitive | 2.42 ± 0.05 | non-competitive | 1.51 ± 0.04 | non-competitive | 1.38 ± 0.62
14 | COc1cc2oc(-c3ccccc3)c(O[C@@H]3O[C@H](COC(C)=O)[C@@H](OC(C)=O)[C@H](OC(C)=O)[C@H]3OC(C)=O)c(=O)c2cc1I [Compound 2m, 6-Iodo-7-methoxy-2-phenyl-4H-chromen-4-one-3-O-2,3,4,6-O-tetraacetyl-β-d-glucopyranoside] | – | 0.53 | 56.21 ± 0.01 µM | 1.89 | 29.8 ± 0.06 | – | – | – | – | – | – | –
15 | COc1cc2oc(-c3ccc(F)cc3)c(OC3OC(COC(C)=O)C(OC(C)=O)C(OC(C)=O)C3OC(C)=O)c(=O)c2cc1I (stereo not drawn) [Compound 2n, 2-(4-Fluorophenyl)-6-Iodo-7-methoxy-4H-chromen-4-one-3-O-2,3,4,6-O-tetraacetyl-β-d-glucopyranoside] | 14.4 ± 0.02 | 5.49 | 6.33 µM and 6.23 µM | 0.18 | 34.21 ± 0.02 | – | – | – | – | – | – | –
16 | COc1cc2oc(-c3ccc(Cl)cc3)c(O[C@@H]3O[C@H](COC(C)=O)[C@@H](OC(C)=O)[C@H](OC(C)=O)[C@H]3OC(C)=O)c(=O)c2cc1I [Compound 2o, 2-(4-Chlorophenyl)-6-iodo-7-methoxy-4H-chromen-4-one-3-O-2,3,4,6-O-tetraacetyl-β-d-glucopyranoside] | – | 1.28 | 28.12 ± 0.06 µM | 0.78 | 36.1 ± 0.02 | – | – | – | – | – | – | –
17 | COc1ccc(-c2oc3cc(OC)c(I)cc3c(=O)c2OC2OC(COC(C)=O)C(OC(C)=O)C(OC(C)=O)C2OC(C)=O)cc1 (stereo not drawn) [Compound 2p, 6-Iodo-7-methoxy-2-(4-methoxyphenyl)-4H-chromen-4-one-3-O-2,3,4,6-O-tetraacetyl-β-d-glucopyranoside] | 17.9 ± 0.04 | 0.57 | 9.19 ± 0.03 µM | 1.75 | 5.21 ± 0.03 | 25.2 ± 0.15 | non-competitive | 2.94 ± 0.02 | non-competitive | 1.62 ± 0.03 | non-competitive | 2.36 ± 0.32
18 | O=c1c(O)c(-c2ccc(O)c(O)c2)oc2cc(O)cc(O)c12 [Quercetin, quercetin, reference compound] | 3.1 | – | – | – | – | – | – | – | – | – | – | –
